Assay results published in the supplement of paper PMC13380429.

Assays:
Caco-2 [1] = experiment: cell viability relative to DMSO; higher = less toxic; details: 72 h
HepG2 [2] = experiment: as above; details: 72 h
Calu-3 [3] = experiment: as above; details: 72 h
Vero E6 [4] = experiment: as above; details: 72 h
U2OS [5] = experiment: as above; details: 72 h
Caco-2 [6] = experiment: drug sensitivity score (DSS) for viability; higher = more toxic; extreme values may be limits of the assay; details: 72 h
HepG2 [7] = experiment: as above; details: 72 h
Calu-3 [8] = experiment: as above; details: 72 h
Vero E6 [9] = experiment: as above; details: 72 h
U2OS [10] = experiment: as above; details: 72 h
A549-ACE2 [11] = experiment: phospholipidosis EC50; higher = less potent phospholipidosis inducer
A549-ACE2 [12] = experiment: drug-induced phospholipidosis relative to tamoxifen; higher = more phospholipidosis
[13] = system: A549-ACE2 infected with SARS-CoV-2; experiment: cell count relative to DMSO; higher = less toxic; details: 24 h
Caco-2 [14] = experiment: relative viability EC50 (midpoint between 100% and the lowest measured viability); higher = less toxic; details: 72 h
HepG2 [15] = experiment: as above; details: 72 h
Calu-3 [16] = experiment: as above; details: 72 h
Vero E6 [17] = experiment: as above; details: 72 h
U2OS [18] = experiment: as above; details: 72 h
[19] = system: A549-ACE2 infected with SARS-CoV-2; experiment: SARS-CoV-2 infection rate relative to DMSO; higher = more infection; details: 24 h
[20] = system: A549-ACE2 infected with SARS-CoV-2; experiment: morphology score (similarity to uninfected cells); higher = more like uninfected cells; details: 24 h

CN(C(=O)Cc1ccc(Cl)c(Cl)c1)[C@H](CN1CCCC1)c1ccccc1
Details | SARS-CoV-2 infection rate [%] | cell count [%] | cell viability [%] | morphology score | phospholipidosis EC50 [µM]
A549-ACE2 [11], 24 h | – | – | – | – | 3.63
A549-ACE2 [11], 48 h | – | – | – | – | 5.18
A549-ACE2 [11], 72 h | – | – | – | – | 8.35
Caco-2 [1], 1 nM | – | – | 96.7 | – | –
Caco-2 [1], 10 nM | – | – | 103 | – | –
Caco-2 [1], 100 nM | – | – | 103 | – | –
Caco-2 [1], 1000 nM | – | – | 103 | – | –
Caco-2 [1], 10000 nM | – | – | 76 | – | –
Calu-3 [3], 1 nM | – | – | 96.1 | – | –
Calu-3 [3], 10 nM | – | – | 100 | – | –
Calu-3 [3], 100 nM | – | – | 90.9 | – | –
Calu-3 [3], 1000 nM | – | – | 97.1 | – | –
Calu-3 [3], 10000 nM | – | – | 28.9 | – | –
HepG2 [2], 1 nM | – | – | 98.1 | – | –
HepG2 [2], 10 nM | – | – | 105 | – | –
HepG2 [2], 100 nM | – | – | 106 | – | –
HepG2 [2], 1000 nM | – | – | 99.4 | – | –
HepG2 [2], 10000 nM | – | – | 85.3 | – | –
U2OS [5], 1 nM | – | – | 96.9 | – | –
U2OS [5], 10 nM | – | – | 99.7 | – | –
U2OS [5], 100 nM | – | – | 101 | – | –
U2OS [5], 1000 nM | – | – | 106 | – | –
U2OS [5], 10000 nM | – | – | 89.9 | – | –
Vero E6 [4], 1 nM | – | – | 104 | – | –
Vero E6 [4], 10 nM | – | – | 101 | – | –
Vero E6 [4], 100 nM | – | – | 107 | – | –
Vero E6 [4], 1000 nM | – | – | 102 | – | –
Vero E6 [4], 10000 nM | – | – | 88.1 | – | –
[13], 0.3 µM | – | 96 | – | – | –
[13], 3 µM | – | 118 | – | – | –
[13], 10 µM | – | 121 | – | – | –
[13], 30 µM | – | 92 | – | – | –
[19], 0.3 µM | 97 | – | – | – | –
[19], 3 µM | 21 | – | – | – | –
[19], 10 µM | 17 | – | – | – | –
[19], 30 µM | 36 | – | – | – | –
[20], 0.3 µM | – | – | – | -0.06 | –
[20], 3 µM | – | – | – | 0.89 | –
[20], 10 µM | – | – | – | 0.84 | –
[20], 30 µM | – | – | – | 0.1 | –

Details | drug sensitivity score | relative viability EC50 [µM]
Caco-2 [6] | 0.7 | –
Caco-2 [14] | – | > 10
Calu-3 [8] | 4.3 | –
Calu-3 [16] | – | 2.85
HepG2 [7] | 0.3 | –
HepG2 [15] | – | > 10
U2OS [10] | 0 | –
U2OS [18] | – | > 10
Vero E6 [9] | 0 | –
Vero E6 [17] | – | > 10

drug-induced phospholipidosis [%], A549-ACE2 [12]
Details | 0.3 µM | 0.833333 µM | 3.33333 µM | 6.66667 µM | 10 µM | 30 µM
24 h | 0.7 | 4.92 | 51.2 | 90.6 | 95.8 | 112
48 h | 4.43 | 3.22 | 36.7 | 77.7 | 97.8 | –
72 h | 3.91 | 2.85 | 31.5 | 65.6 | 90.5 | –

NC1(Cc2ccc(Cl)cc2)CCN(c2ncnc3[nH]ccc23)CC1
Details | SARS-CoV-2 infection rate [%] | cell count [%] | cell viability [%] | morphology score | phospholipidosis EC50 [µM]
A549-ACE2 [11], 24 h | – | – | – | – | 5.25
A549-ACE2 [11], 48 h | – | – | – | – | 7.16
A549-ACE2 [11], 72 h | – | – | – | – | 8.44
Caco-2 [1], 1 nM | – | – | 93.7 | – | –
Caco-2 [1], 10 nM | – | – | 109 | – | –
Caco-2 [1], 100 nM | – | – | 95.4 | – | –
Caco-2 [1], 1000 nM | – | – | 98.2 | – | –
Caco-2 [1], 10000 nM | – | – | 81.7 | – | –
Calu-3 [3], 1 nM | – | – | 95.4 | – | –
Calu-3 [3], 10 nM | – | – | 99.9 | – | –
Calu-3 [3], 100 nM | – | – | 100 | – | –
Calu-3 [3], 1000 nM | – | – | 105 | – | –
Calu-3 [3], 10000 nM | – | – | 77.5 | – | –
HepG2 [2], 1 nM | – | – | 100 | – | –
HepG2 [2], 10 nM | – | – | 102 | – | –
HepG2 [2], 100 nM | – | – | 94.5 | – | –
HepG2 [2], 1000 nM | – | – | 91.1 | – | –
HepG2 [2], 10000 nM | – | – | 26.3 | – | –
U2OS [5], 1 nM | – | – | 96.9 | – | –
U2OS [5], 10 nM | – | – | 101 | – | –
U2OS [5], 100 nM | – | – | 93 | – | –
U2OS [5], 1000 nM | – | – | 95 | – | –
U2OS [5], 10000 nM | – | – | 52.6 | – | –
Vero E6 [4], 1 nM | – | – | 97.6 | – | –
Vero E6 [4], 10 nM | – | – | 100 | – | –
Vero E6 [4], 100 nM | – | – | 96.8 | – | –
Vero E6 [4], 1000 nM | – | – | 88.5 | – | –
Vero E6 [4], 10000 nM | – | – | 65.3 | – | –
[13], 0.1 µM | – | 104 | – | – | –
[13], 0.3 µM | – | 105 | – | – | –
[13], 1 µM | – | 104 | – | – | –
[13], 3 µM | – | 105 | – | – | –
[19], 0.1 µM | 99 | – | – | – | –
[19], 0.3 µM | 106 | – | – | – | –
[19], 1 µM | 104 | – | – | – | –
[19], 3 µM | 85 | – | – | – | –
[20], 0.1 µM | – | – | – | 0.13 | –
[20], 0.3 µM | – | – | – | -0.05 | –
[20], 1 µM | – | – | – | 0.15 | –
[20], 3 µM | – | – | – | 0.48 | –

Details | drug sensitivity score | relative viability EC50 [µM]
Caco-2 [6] | 0.7 | –
Caco-2 [14] | – | > 10
Calu-3 [8] | 0.5 | –
Calu-3 [16] | – | > 10
HepG2 [7] | 5.6 | –
HepG2 [15] | – | 2.18
U2OS [10] | 3.3 | –
Vero E6 [9] | 3 | –

drug-induced phospholipidosis [%], A549-ACE2 [12]
Details | 0.3 µM | 0.833333 µM | 3.33333 µM | 6.66667 µM | 10 µM | 30 µM
24 h | 2.53 | 6.69 | 24.4 | 64.2 | 86.2 | 95.1
48 h | 0.01 | -2.52 | 9.67 | 37.5 | 65.9 | 86.8
72 h | -2.31 | -5.85 | 5.48 | 20.6 | 47.9 | 73.3
